Read-outs that look alike come from different tables or passages of the source.
How the values were obtained:
Colo205 = experiment: Proliferation assay (CellTiter Glo), Colo205; type: cell-based; conditions: Colo205 (WT K-ras)
Method: (§1) Briefly, cells at a density of 1,000-10,000 cells/well were seeded in 96-well plates and incubated at 37′C for 24 hours. A series of 9 different concentrations of compound stocks (500×) were created by 3-fold serial dilution in DMSO. These compounds were further diluted in culture media and then added to cells so that the final DMSO concentration was 0.2%. After 96 hours of incubation, 50 μL of CellTiter Glo reagent (Promega) was added to each well and luminescence was measured after 10 minutes using EnVision (PerkinElmer). […] The dose range for most compounds was 4.6 nM-30 μM. The dose ranges for some compounds were adjusted downward to 0.46 nM-3 μM or 0.08 nM-0.5 μM or 0.03 nM-0.2 μM. Luminescence from cells treated with […] alone was set as Max and % of inhibition was calculated as follows: Inhibition %=(Max-Sample value)/Max*100. Data was analyzed using XL-fit software (ID Business Solutions Ltd.) and EC50, relative EC50, and % of top inhibition were calculated.
(§2) Other cancer cell lines having wild-type K-ras status and K-ras mutation at G12 were also screened using the PKC activator compounds. […] K-104 was tested in a range of 0.03 nM-0.2 μM. […] The dose ranges were adjusted downward to 0.46 nM-3 μM for K-102 and 0.08 nM-0.5 μM for K-103 for some cell lines.

THP1 = experiment: Proliferation assay (CellTiter Glo), THP1; type: cell-based; conditions: for Top inhibition %: 96 hours
Method: as §1, with “calculated. The results are shown in Tables 3-6 for pancreatic cancer, lung cancer, colon/gastric cancer, and leukemia cell lines.” for “calculated.”

Panc2.03 = experiment: Proliferation assay (CellTiter Glo), Panc2.03; type: cell-based; conditions: for Top inhibition %: 96 hours
Method: as §1, with “calculated. The results are shown in Tables 3-6 for pancreatic cancer, lung cancer, colon/gastric cancer, and leukemia cell lines.” for “calculated.”

[1] = test system: PKCδ, PKCμ, c-Raf in MH22A; experiment: Activation of PKC isoforms in hepatoma cell line MH22A, Western blot; type: cell-based, mouse
HCT116 = experiment: Proliferation assay (CellTiter Glo), HCT116; type: cell-based; conditions: for Top inhibition %: 96 hours
Method: as §1, with “calculated. The results are shown in Tables 3-6 for pancreatic cancer, lung cancer, colon/gastric cancer, and leukemia cell lines.” for “calculated.”

[2] = test system: PKCμ and PKCδ in HFL-1 cells; experiment: Activation of PKC isoforms in non-cancerous lung fibroblast HFL-1 cells; type: cell-based, human; conditions: 30 minutes
[3] = test system: leukemia inhibitory factor (LIF); experiment: Western blot of LIF in A549 cells; type: cell-based; conditions: for protein levels of the leukemia inhibitory factor (LIF): Western blot, concentrations of Table 8, 48 hours
Method: Cancer cells (2-8 million cells) were seeded in 10 cm dishes and grown overnight. For A549 lung cancer cell line, about 3 million cells were seeded. Cells were then treated with different drugs at indicated concentrations (see Table 8) for a period of time up to 48 hours. Cells were lysed in 0.3-0.5 mL of RIPA buffer (Sigma) supplemented with protease inhibitors (Roche) and phosphatase inhibitors (Sigma). Lysates were assayed for protein concentration using BCA kit (Pierce). Normalized amount of lysates (20-30 μg protein/lane) were run on 4-12% NuPage gel (Life Technologies) and the proteins were transferred to the PVDF or nitrocellulose membrane using iBlot® Transfer Stack (Life Technologies). The membranes were probed with primary antibodies shown in Table 8 at 4° C. overnight after blocking with 1×TBST containing 5% non-fat milk. Antibodies from other vendors could also be used in Western blot analysis. After washing 5 times with 1×TBS containing 0.1% Tween20, the membranes were probed with 2nd antibodies Anti-mouse IgG Dylight 800 conjugate or Anti-rabbit IgG DyLight 680 conjugate (1:10000; Cell signaling or similar IR 2nd antibodies from different vendors) at room temperature for one hour. After washing 5 times, the membranes were scanned using Odyssey® Imaging System (Licor Biosciences).

[4] = test system: PKCδ, PKCμ, c-Raf in MBT-2; experiment: Activation of PKC isoforms in bladder cancer line MBT-2, Western blot; type: cell-based, mouse
AsPC-1 = experiment: Proliferation assay (CellTiter Glo), AsPC-1; type: cell-based; conditions: for Top inhibition %: 96 hours
Method: as §1, with “calculated. The results are shown in Tables 3-6 for pancreatic cancer, lung cancer, colon/gastric cancer, and leukemia cell lines.” for “calculated.”

RPMI8226 = experiment: Proliferation assay (CellTiter Glo), RPMI8226; type: cell-based; conditions: RPMI8226 (K-ras: G12A)
Method: as §1, §2

H727 = experiment: Proliferation assay (CellTiter Glo), H727; type: cell-based; conditions: for Top inhibition %: 96 hours
Method: as §1, with “calculated. The results are shown in Tables 3-6 for pancreatic cancer, lung cancer, colon/gastric cancer, and leukemia cell lines.” for “calculated.”

KP-4 = experiment: Proliferation assay (CellTiter Glo), KP-4; type: cell-based; conditions: for Top inhibition %: 96 hours
Method: as §1, with “calculated. The results are shown in Tables 3-6 for pancreatic cancer, lung cancer, colon/gastric cancer, and leukemia cell lines.” for “calculated.”

MiaPaCa-2 = experiment: Proliferation assay (CellTiter Glo), MiaPaCa-2; type: cell-based; conditions: for Top inhibition %: 96 hours
Method: as §1

H441 = experiment: Proliferation assay (CellTiter Glo), H441; type: cell-based; conditions: for Top inhibition %: 96 hours
Method: as §1, with “calculated. The results are shown in Tables 3-6 for pancreatic cancer, lung cancer, colon/gastric cancer, and leukemia cell lines.” for “calculated.”

AGS = experiment: Proliferation assay (CellTiter Glo), AGS; type: cell-based; conditions: for Top inhibition %: 96 hours
Method: as §1, with “calculated. The results are shown in Tables 3-6 for pancreatic cancer, lung cancer, colon/gastric cancer, and leukemia cell lines.” for “calculated.”

MH22A = experiment: Anti-cell proliferative effects, MH22A; type: cell-based, mouse
A549 = experiment: Proliferation assay (CellTiter Glo), A549; type: cell-based; conditions: for Top inhibition %: 96 hours
Method: as §1, with “calculated. The results are shown in Tables 3-6 for pancreatic cancer, lung cancer, colon/gastric cancer, and leukemia cell lines.” for “calculated.”

H838 = experiment: Proliferation assay (CellTiter Glo), H838; type: cell-based; conditions: H838 (WT K-ras)
Method: as §1, §2

LS180 = experiment: Proliferation assay (CellTiter Glo), LS180; type: cell-based; conditions: for Top inhibition %: 96 hours; for EC50: absolute EC50, 96 hours, read-out: Ab EC50
Method: as §1, with “calculated. The results are shown in Tables 3-6 for pancreatic cancer, lung cancer, colon/gastric cancer, and leukemia cell lines.” for “calculated.”

MBT-2 = experiment: Anti-cell proliferative effects, MBT-2; type: cell-based, mouse
[5] = Homo sapiens, absolute EC50, 96 hours, read-out: Ab EC50
[6] = Homo sapiens, relative EC50, 96 hours, read-out: Re EC50
[7] = absolute EC50, 96 hours, read-out: Ab EC50
[8] = relative EC50, 96 hours, read-out: Re EC50

CC(=O)O[C@@]12C[C@@H](C)[C@]3(O)C4C=C(C)C(=O)[C@@]4(O)CC(CO)=C[C@H]3[C@@H]1C2(C)C (stereo partly shown) [Compound K-101A, Prostratin]
Top inhibition % (Colo205): 83.6% | Top inhibition % (THP1): 51.8% | EC50 (THP1; Homo sapiens, THP-1, absolute EC50, 96 hours, read-out: Ab EC50): 0.87 µM | EC50 (THP1; Homo sapiens, THP-1, relative EC50, 96 hours, read-out: Re EC50): 0.3 µM | Top inhibition % (Panc2.03): 27.0% | EC50 (Panc2.03; Homo sapiens, Panc203, absolute EC50, 96 hours, read-out: Ab EC50): > 30 µM | EC50 (Panc2.03; Homo sapiens, Panc203, relative EC50, 96 hours, read-out: Re EC50): 0.12 µM | phosphorylation of PKCδ at Thr505, PKCμ at Ser744/748, PKCμ at Ser916, c-Raf at Ser338 [1]: did not induce further phosphorylation | Top inhibition % (HCT116): 17.4% | EC50 (HCT116; Homo sapiens, HCT-116, absolute EC50, 96 hours, read-out: Ab EC50): > 30 µM | phosphorylation of PKCμ at Ser916 and Ser744/748, and PKCδ at Thr505 and Tyr311 [2]: resulted in phosphorylation | LIF protein level ([3]; 0.5 uM of K-101A): lowered | protein levels of the leukemia inhibitory factor (LIF) [3]: dose-dependent reduction | phosphorylations of PKCδ at Thr505, PKCμ at Ser744/748, PKCμ at Ser916, c-Raf at Ser338 [4]: induced phosphorylations | Top inhibition % (AsPC-1): 32.4% | EC50 (AsPC-1; Homo sapiens, ASPC1, absolute EC50, 96 hours, read-out: Ab EC50): > 30 µM | EC50 (AsPC-1; Homo sapiens, ASPC1, relative EC50, 96 hours, read-out: Re EC50): 0.27 µM | Top inhibition % (RPMI8226): 32.39% | Top inhibition % (H727): 48.3% | EC50 (H727; Homo sapiens, NCI-H727, absolute EC50, 96 hours, read-out: Ab EC50): > 30 µM | EC50 (H727; Homo sapiens, NCI-H727, relative EC50, 96 hours, read-out: Re EC50): 0.19 µM | Top inhibition % (KP-4): 63.3% | EC50 (KP-4; [5]): 0.4 µM | EC50 (KP-4; [6]): 0.19 µM | Top inhibition % (MiaPaCa-2): 74.4% | EC50 (MiaPaCa-2; Homo sapiens, MIA PaCa-2, absolute EC50, 96 hours, read-out: Ab EC50): 0.3 µM | EC50 (MiaPaCa-2; Homo sapiens, MIA PaCa-2, relative EC50, 96 hours, read-out: Re EC50): 0.18 µM | Top inhibition % (H441): 42.1% | EC50 (H441; Homo sapiens, NCI-H441, absolute EC50, 96 hours, read-out: Ab EC50): > 30 µM | EC50 (H441; Homo sapiens, NCI-H441, relative EC50, 96 hours, read-out: Re EC50): 0.32 µM | Top inhibition % (AGS): 21.7% | EC50 (AGS; [5]): > 30 µM | EC50 (AGS; [6]): 0.49 µM | sensitivity to anti-cell proliferative effects (MH22A): insensitive | Top inhibition % (A549): 76.0% | EC50 (A549; [5]): 0.49 µM | EC50 (A549; [6]): 0.27 µM | Top inhibition % (H838): 10.1% | Top inhibition % (LS180): 4.4% | EC50 (LS180; Homo sapiens): > 30 µM | sensitivity to anti-cell proliferative effects (MBT-2): sensitive

CC(=O)OCC1=C[C@H]2[C@@H]3C(C)(C)[C@]3(OC(C)=O)C[C@@H](C)[C@]2(O)C2C=C(C)C(=O)[C@@]2(O)C1 (stereo partly shown) [Compound K-101E]
Top inhibition % (Colo205): 85.8% | Top inhibition % (THP1): 51.6% | EC50 (THP1; [7]): 3.6 µM | EC50 (THP1; [8]): 1.02 µM | Top inhibition % (Panc2.03): 36.5% | EC50 (Panc2.03; [7]): > 30 µM | EC50 (Panc2.03; [8]): 1.92 µM | Top inhibition % (HCT116): 27.4% | EC50 (HCT116; [7]): > 30 µM | EC50 (HCT116; [8]): 6.64 µM | protein levels of the leukemia inhibitory factor (LIF) [3]: did not affect | Top inhibition % (AsPC-1): 35.2% | EC50 (AsPC-1; [7]): > 30 µM | EC50 (AsPC-1; [8]): 2.78 µM | Top inhibition % (RPMI8226): 32.25% | Top inhibition % (H727): 49.1% | EC50 (H727; [7]): > 30 µM | EC50 (H727; [8]): 0.62 µM | Top inhibition % (KP-4): 69.1% | EC50 (KP-4; [7]): 1.28 µM | EC50 (KP-4; [8]): 0.68 µM | Top inhibition % (MiaPaCa-2): 61.4% | EC50 (MiaPaCa-2; [7]): 1.88 µM | EC50 (MiaPaCa-2; [8]): 0.86 µM | Top inhibition % (H441): 49.1% | EC50 (H441; [7]): > 30 µM | EC50 (H441; [8]): 2.61 µM | Top inhibition % (AGS): 25.9% | EC50 (AGS; [7]): > 30 µM | EC50 (AGS; [8]): 4.38 µM | Top inhibition % (A549): 78.7% | EC50 (A549; [7]): 2.64 µM | EC50 (A549; [8]): 1.56 µM | Top inhibition % (H838): 26.8% | Top inhibition % (LS180): 1.3% | EC50 (LS180): > 30 µM

C/C=C(/C)C(=O)O[C@H]1C(C)=C[C@]23C(=O)[C@@H](C=C(CO)[C@@H](O)[C@]12O)[C@H]1[C@@H](C[C@H]3C)C1(C)C [Compound K-102, Ingenol-3-angelate, reference compound]
phosphorylation of PKCδ at Thr505, PKCμ at Ser744/748, PKCμ at Ser916, c-Raf at Ser338 ([1]; MH22A, basal levels high, K101A 1 μM, K102 0.1 μM): did not induce further phosphorylation | phosphorylation of PKCμ at Ser916 and Ser744/748, and PKCδ at Thr505 and Tyr311 [2]: resulted in phosphorylation | phosphorylations of PKCδ at Thr505, PKCμ at Ser744/748, PKCμ at Ser916, c-Raf at Ser338 ([4]; MBT-2, K101A 1 μM, K102 0.1 μM): induced phosphorylations | sensitivity to anti-cell proliferative effects (MH22A): insensitive | sensitivity to anti-cell proliferative effects (MBT-2): sensitive

From US12502369B2, “Methods of cancer treatment” (K-GEN, INC., priority 2015, dated 2025)
